Test results from patent US20100267561A1, “HERBICIDAL PYRIDAZINONE DERIVATIVES” (priority 2007, published 2010).

Key:
Assay type in all cases: in vivo
[1] = tested on: large crabgrass (Digitaria sanguinalis); assay: Test B pre-/postemergence plant response
How it was run: (§1)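 Visual scoring from 0 (no effect) to 100 (complete control) against untreated controls was done 13 to 15 days after greenhouse treatment. Chemicals were formulated in a surfactant-containing non-phytotoxic solvent and applied to soil preemergence or to 1- to 4-leaf (2-18 cm) plants postemergence.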

[2] = tested on: cocklebur (Xanthium strumarium); assay: Test B pre-/postemergence plant response; details: for Cocklebur plant response rating: 8 g ai/ha
How it was run: as §1

[3] = tested on: Russian thistle (Salsola iberica); assay: Test B pre-/postemergence plant response; details: Preemergence
How it was run: as §1

[4] = tested on: wild mustard (Sinapis arvensis); assay: Test C pre-/postemergence plant response
How it was run: (§2)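 Ratings ran from 0 (no effect) to 100 (complete control) and were made visually against untreated controls 15–25 days after treatment in a controlled growth environment. Application was preemergence and, for some chemicals, postemergence at the 1- to 4-leaf stage (2–18 cm). Formulation was a non-phytotoxic solvent mixture with surfactant.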

[5] = tested on: green foxtail (Setaria viridis); assay: Test C pre-/postemergence plant response
How it was run: as §2

[6] = tested on: Italian ryegrass (Lolium multiflorum); assay: Test C pre-/postemergence plant response
How it was run: as §2

[7] = tested on: downy bromegrass (Bromus tectorum); assay: Test C pre-/postemergence plant response
How it was run: as §2

[8] = tested on: blackgrass (Alopecurus myosuroides); assay: Test C pre-/postemergence plant response
How it was run: as §2

[9] = tested on: winter wheat (Triticum aestivum); assay: Test C pre-/postemergence plant response
How it was run: as §2

[10] = tested on: pigweed (Amaranthus retroflexus); assay: Test C pre-/postemergence plant response
How it was run: as §2

[11] = tested on: winter barley (Hordeum vulgare); assay: Test C pre-/postemergence plant response
How it was run: as §2

[12] = tested on: spring wheat (Triticum aestivum); assay: Test C pre-/postemergence plant response
How it was run: as §2

[13] = tested on: spring barley (Hordeum vulgare); assay: Test C pre-/postemergence plant response
How it was run: as §2

[14] = Postemergence, 16 g ai/ha, scale 0 to 100
[15] = Postemergence, 31 g ai/ha, scale 0 to 100
[16] = Postemergence, 62 g ai/ha, scale 0 to 100, 0 no effect, 100 complete control
[17] = Preemergence, 31 g ai/ha, 0 to 100 scale, 0 no effect, 100 complete control
[18] = Preemergence, 62 g ai/ha, scale 0 to 100
[19] = Preemergence, 16 g ai/ha, scale 0 to 100 (0 no effect, 100 complete control)
[20] = Postemergence, 8 g ai/ha, scale 0 to 100, 0 no effect, 100 complete control
[21] = Postemergence, 16 g ai/ha, scale 0 to 100, 0 no effect, 100 complete control
[22] = Postemergence, 31 g ai/ha, scale 0 to 100, 0 no effect, 100 complete control
[23] = Preemergence, 8 g ai/ha, scale 0 to 100 (0 no effect, 100 complete control)
[24] = Preemergence, 31 g ai/ha, scale 0 to 100 (0 no effect, 100 complete control)
[25] = Preemergence, 62 g ai/ha, scale 0 to 100, 0 no effect, 100 complete control

## CCOC(=O)Oc1cnn(C)c(=O)c1-n1nc(-c2ccc(Cl)cc2)cc1C [Compound 53]
[1]; 8 g ai/ha, postemergence, 0-100 scale
  Crabgrass, Large plant response rating: 65
[1]; [14]
  Plant response rating, Crabgrass, Large: 85
[1]; [15]
  Plant response rating, Crabgrass, Large: 90
[1]; [16]
  Plant response rating, Crabgrass, Large: 100
[1]; [17]
  Plant response rating, Crabgrass, Large: 0
[1]; [18]
  Plant response rating, Crabgrass, Large: 0
[1]; Preemergence, 8 g ai/ha, scale 0 to 100
  Crabgrass, Large plant response rating: 0
[1]; Preemergence, 16 g ai/ha, scale 0 to 100
  Crabgrass, Large plant response rating: 0
[2]; postemergence, 0-100 scale
  Cocklebur plant response rating: 0
[2]; [14]
  Plant response rating, Cocklebur: 0
[2]; [15]
  Plant response rating, Cocklebur: 0
[2]; [16]
  Plant response rating, Cocklebur: 0
[2]; [19]
  Plant response rating, Cocklebur: 0
[2]; [17]
  Plant response rating, Cocklebur: 0
[2]; [18]
  Plant response rating, Cocklebur: 0
[2]; Preemergence, scale 0 to 100
  Cocklebur plant response rating: 0
[3]; 31 g ai/ha, scale 0 to 100 (0 no effect, 100 complete control)
  Plant response rating, Russian Thistle: 0
[3]; 62 g ai/ha, scale 0 to 100
  Plant response rating, Russian Thistle: 0
[3]; 8 g ai/ha, scale 0 to 100
  Russian Thistle plant response rating: 0
[3]; 16 g ai/ha, scale 0 to 100
  Russian Thistle plant response rating: 0
[4]; [20]
  Plant response rating, Mustard, Wild: 0
[4]; [21]
  Plant response rating, Mustard, Wild: 0
[4]; [22]
  Plant response rating, Mustard, Wild: 0
[4]; [16]
  Plant response rating, Mustard, Wild: 0
[4]; [23]
  Plant response rating, Mustard, Wild: 0
[4]; [24]
  Plant response rating, Mustard, Wild: 0
[4]; [25]
  Plant response rating, Mustard, Wild: 0
[5]; [20]
  Plant response rating, Foxtail, Green: 95
[5]; [21]
  Plant response rating, Foxtail, Green: 98
[5]; [22]
  Plant response rating, Foxtail, Green: 100
[5]; [16]
  Plant response rating, Foxtail, Green: 100
[5]; [23]
  Plant response rating, Foxtail, Green: 90
[5]; [19]
  Plant response rating, Foxtail, Green: 90
[5]; [24]
  Plant response rating, Foxtail, Green: 100
[5]; [25]
  Plant response rating, Foxtail, Green: 100
[6]; [20]
  Plant response rating, Ryegrass, Italian: 75
[6]; [21]
  Plant response rating, Ryegrass, Italian: 100
[6]; [22]
  Plant response rating, Ryegrass, Italian: 100
[6]; [16]
  Plant response rating, Ryegrass, Italian: 100
[6]; [23]
  Plant response rating, Ryegrass, Italian: 25
[6]; [19]
  Plant response rating, Ryegrass, Italian: 100
[6]; [24]
  Plant response rating, Ryegrass, Italian: 100
[6]; [25]
  Plant response rating, Ryegrass, Italian: 100
[7]; [20]
  Plant response rating, Bromegrass, Downy: 0
[7]; [21]
  Plant response rating, Bromegrass, Downy: 20
[7]; [22]
  Plant response rating, Bromegrass, Downy: 30
[7]; [16]
  Plant response rating, Bromegrass, Downy: 90
[7]; [23]
  Plant response rating, Bromegrass, Downy: 10
[7]; [19]
  Plant response rating, Bromegrass, Downy: 20
[7]; [24]
  Plant response rating, Bromegrass, Downy: 80
[7]; [25]
  Plant response rating, Bromegrass, Downy: 85
[8]; [20]
  Plant response rating, Blackgrass: 65
[8]; [21]
  Plant response rating, Blackgrass: 100
[8]; [22]
  Plant response rating, Blackgrass: 100
[8]; [16]
  Plant response rating, Blackgrass: 100
[8]; [23]
  Plant response rating, Blackgrass: 70
[8]; [19]
  Plant response rating, Blackgrass: 75
[8]; [24]
  Plant response rating, Blackgrass: 98
[8]; [25]
  Plant response rating, Blackgrass: 98
[9]; [20]
  Plant response rating, Wheat, Winter: 0
[9]; [21]
  Plant response rating, Wheat, Winter: 10
[9]; [22]
  Plant response rating, Wheat, Winter: 65
[9]; [16]
  Plant response rating, Wheat, Winter: 95
[9]; [23]
  Plant response rating, Wheat, Winter: 0
[9]; [19]
  Plant response rating, Wheat, Winter: 0
[9]; [24]
  Plant response rating, Wheat, Winter: 50
[9]; [25]
  Plant response rating, Wheat, Winter: 70
[10]; [20]
  Plant response rating, Pigweed: 0
[10]; [21]
  Plant response rating, Pigweed: 0
[10]; [22]
  Plant response rating, Pigweed: 0
[10]; [16]
  Plant response rating, Pigweed: 0
[10]; [23]
  Plant response rating, Pigweed: 0
[10]; [19]
  Plant response rating, Pigweed: 0
[10]; [24]
  Plant response rating, Pigweed: 0
[10]; [25]
  Plant response rating, Pigweed: 0
[11]; [20]
  Plant response rating, Barley, Winter: 0
[11]; [21]
  Plant response rating, Barley, Winter: 10
[11]; [22]
  Plant response rating, Barley, Winter: 40
[11]; [16]
  Plant response rating, Barley, Winter: 95
[11]; [23]
  Plant response rating, Barley, Winter: 0
[11]; [19]
  Plant response rating, Barley, Winter: 15
[11]; [24]
  Plant response rating, Barley, Winter: 50
[11]; [25]
  Plant response rating, Barley, Winter: 50
[12]; [20]
  Plant response rating, Wheat, Spring: 5
[12]; [21]
  Plant response rating, Wheat, Spring: 50
[12]; [22]
  Plant response rating, Wheat, Spring: 80
[12]; [16]
  Plant response rating, Wheat, Spring: 98
[12]; [23]
  Plant response rating, Wheat, Spring: 0
[12]; [19]
  Plant response rating, Wheat, Spring: 20
[12]; [24]
  Plant response rating, Wheat, Spring: 85
[12]; [25]
  Plant response rating, Wheat, Spring: 85
[13]; [20]
  Plant response rating, Barley, Spring: 0
[13]; [21]
  Plant response rating, Barley, Spring: 40
[13]; [22]
  Plant response rating, Barley, Spring: 40
[13]; [16]
  Plant response rating, Barley, Spring: 100
[13]; [23]
  Plant response rating, Barley, Spring: 0
[13]; [19]
  Plant response rating, Barley, Spring: 0
[13]; [24]
  Plant response rating, Barley, Spring: 40
[13]; [25]
  Plant response rating, Barley, Spring: 75
